Laboratory results as given in the NIST ThermoML archive (doi:10.1016/j.jct.2014.06.011).
Numbers after ± are expanded uncertainties.

Legend:
[1] = Molar enthalpy of transition or fusion; settings: Crystal; DSC
[2] = Crystal; DTA

Molar enthalpy of transition or fusion [1] [kcal/mol]	Normal melting temperature [2] [°C]	Compound
6.88 ± 0.741	7.2 ± 0.7	CCCCCCCCCCO [decan-1-ol]
6.69 ± 0.741	32.2 ± 0.7	CCCCCCCCCC(=O)O [decanoic acid]
5.66 ± 0.717	-14.4 ± 0.7	CCCCCCCCO [octan-1-ol]
5.11 ± 0.717	16.6 ± 0.7	CCCCCCCC(=O)O [octanoic acid]
